Laboratory results: PubChem BioAssay (NCI)
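In this assay, cells in 96-well plates receive the compound at five concentrations for 48 hours. Endpoints are linearly interpolated between the surrounding concentrations. Definition used: TGI = concentration required for complete inhibition of growth.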

Assays:
Assay in all cases: NCI tumour cell line growth inhibition, 48 h
CAKI-1 renal = system: CAKI-1 renal
MDA-MB-435 = system: MDA-MB-435
KM12 colon = system: KM12 colon
RXF 393 renal = system: RXF 393 renal
SF-539 CNS = system: SF-539 CNS

SMILES	TGI (CAKI-1 renal) [µM]	TGI (MDA-MB-435) [µM]	TGI (KM12 colon) [µM]	TGI (RXF 393 renal) [µM]	TGI (SF-539 CNS) [µM]
CC1(CCOCc2ccccc2)NC(=O)NC1=O (stereo not given)	> 100	> 100	> 100	> 100	
CCCCCCOC(=O)/C=C/[C@]1(CO)C/C(=C/CC(C(C)C)C(C)C)C(=O)O1	23.7	15.1	33.3	36.9	
CN1CCN(C(=S)N2CCN(C)CC2)CC1	> 100	> 100	> 100	> 100	45.3
CCCCCCc1cc2cc(C(=O)Nc3ccccc3)c(=N)oc2cc1O	> 100	14.1	8.48	> 100	> 48.6
COc1ccc(S(=O)(=O)c2nnc(S(=O)(=O)Cc3ccccc3)s2)cc1	39.3	71.8	> 100	31.2	50.1
N#Cc1c(N)nc2n[nH]c(N)c2c1-c1ccc(Cl)cc1	29.3	> 74.4	> 100	7.26	45
CCOC1OC(=O)c2cc3ccc4c(c3c(-c3ccc5c(c3)OCO5)c21)OCO4 (stereo not given)	> 100	> 28	> 100	97.9	20.4
CC1OC(OC2C(O)COC(OC3C(C)OC(OC4C(OC(=O)[C@]56CCC(C)(C)C[C@@H]5C5=CCC7[C@@]8(C)C[C@H](O)[C@H](OC9OC(CO)C(O)C(O)C9O)[C@@](C)(CO)[C@@H]8CC[C@@]7(C)[C@]5(C)CC6)OCC(O)C4O)C(O)C3OC3OCC(O)(CO)C3O)C2O)C(O)C(O)C1O (stereo not given in full)	13.8	47.3	52.4	34.1	44.8
CC12CC(c3ccccc3O1)C(C(=O)Nc1ccc(Cl)cc1Cl)C(=O)N2 (stereo not given)	> 100	> 100	> 100		> 100
Cn1ccc(C(=O)NCCN(CCNC(=O)c2ccn(C)c(=O)c2O)CCNC(=O)c2cccc(=O)n2O)c(O)c1=O	> 100	> 100	> 100	> 100	> 100
O=c1cnn(C/C=C/CO)c(=O)[nH]1	> 100	> 100	> 100	> 100	
COc1ccc(-[n+]2nc(S(=O)(=O)O)c(/C=C/c3ccc(N(C)C)cc3)cc2C#N)cc1	> 100	> 100	> 100		> 100
O=[N+]([O-])c1ccc2c(c1)C1=C(CO2)Cc2ccccc2O1	31.4	80.5	39.3		52.2
CSc1nc(Nc2cccc(C(F)(F)F)c2)c2c(N)nn(C)c2n1	> 100	> 100	> 100	> 100	
Nc1ncnc2c1ncn2[C@@H]1C[C@@H]1CO		> 100	> 100		> 100
COc1ccc2cc(/C=N/NC(=O)Nc3ccccc3)ccc2c1	> 100	> 100	> 100		
COC(=O)C1=C(O)C(C(=O)OC)[C@]2(O)[C@H](C(=O)OC)[C@H]1C[C@@H](c1ccc(C(F)(F)F)cc1)[C@H]2C(=O)OC (stereo not given in full)	> 100	> 100	53.3	6.5	4
O=C(Oc1ccccn1)c1cc2cc(CCl)ccc2oc1=O	77.3	> 100	> 100	41.3	> 100

SMILES	TGI (CAKI-1 renal) [µM]	TGI (MDA-MB-435) [µM]	TGI (KM12 colon) [µM]	TGI (RXF 393 renal) [µM]	TGI (SF-539 CNS) [µM]
Nc1nc(SC/C=C/c2ccccc2)c2[nH]cnc2n1	> 100	> 100	> 100	> 100	> 100
CN=C(N=Nc1c(O)[nH]c2ccccc12)SCC(=O)c1ccc(Br)cc1	> 65.5	> 42.3	> 39.5	19.2	23.8
NC(=O)C(C(N)=O)=C(O)C(=O)/C=C(\O)c1ccccc1	> 100	> 100	> 100	> 100	> 100
Cn1c(=O)c2c(nc(Cc3ccccc3)n2CC(=O)O)n(C)c1=O	> 100	> 100	> 100	> 100	
O=[N+]([O-])/C(C(Cl)=C(Cl)Cl)=C(/Cl)Sc1ccccc1	6.57	3.29	32	9.86	3.78
OC1C#CCSCC#C/C=C\1 (stereo not given)		> 100		68.1	> 100
CCOC(=O)c1nnc2c(C(=O)OCC)c3ccccc3n2c1N	> 100	> 100	66.8	> 100	> 100
CCOC(=O)CN1C(=O)c2ccc(NC(=O)C(=O)O)cc2S1(=O)=O	> 100	> 100	> 100	> 100	
CC(CO)(CO)N1C(=O)C2C3C=CC(C3)C2C1=O (stereo not given)	> 100	> 100	> 100	> 100	> 100
COC(=O)c1ccccc1/C=C1\Cc2ccc(C)c(C)c2C1=O	> 100	> 100	> 100	> 100	> 100
CSc1ncnc2c1ncn2CCC(=O)OC(C)(C)C	> 100	> 100	> 100	> 100	> 100
CCOC(=O)CC[C@H](NC(=O)[C@H](N)Cc1ccc(N(CCCl)CCCl)cc1)C(=O)OCC	> 37.1	> 53.1	31.8	29.7	30.8
COC(=O)/C=C(\C)CC(O)/C=C(\C)CCC=C(C)C (stereo not given)	> 100		> 100	> 100	> 100
COc1ccc(/C=C2\N=C(SC)N(CN3CCOCC3)C2=O)cc1		> 100	> 100		
CN(CC(=O)O)c1ncc2c(n1)CCCC2	> 100	> 100	> 100	> 100	> 100
O=c1[nH]nc(Cc2ccccc2)n1/N=C/c1ccccc1O	> 100	> 100	> 100	53.5	> 100
O=C1C(c2c(O)[nH]c3ccc(F)cc23)=Nc2ccccc21	> 100	> 100	> 100	9.77	
Clc1ccc(C2C3COc4ccccc4C3=NN2c2ccccc2)cc1 (stereo not given)	> 100	> 100	> 100	> 100	> 100
